Earlier results on four molecules are cited in patent US20060189550A1, “Immunostimulatory, Covalently lipidated oligonucleotides” (Biomira Inc., priority 2002, published 2006).

For the data set the following is noted: Table K-2, reference compounds; experimental database value from LogKow.
Consider `Cc1c[nH]c2ccccc12` [3-methyl indole], for which the “LogP Exp” value is on record as 2.60. Consider `CCCCOC` [methyl n-butyl ether], for which the “LogP Exp” value is listed as 1.66. As to `O=c1ccc2cc3ccoc3cc2o1` [psoralen], the “LogP Exp” value is 1.67. As to `CCSC` [Ethane, (methylthio)-], the “LogP Exp” value is on record as 1.54.
